{"source": "PubChem BioAssay AID1188", "about": "(EPA DSSTox, 2008)", "note": "Active and inactive are the calls of the source.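 The calls were made as follows: active = a concentration killing half the fathead minnows in the acute test was determined; inconclusive = some fish died but not half at top dose; inactive = no fish died even at top dose.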", "data": [{"tested_on": "Fathead minnow (Pimephales promelas) acute toxicity, lethality", "assay": "DSSTox (EPAFHM) EPA Fathead Minnow Acute Toxicity", "text": "The EPA Fathead Minnow Acute Toxicity database was generated by the U.S. EPA Mid-Continental Ecology Division (MED) for the purpose of developing an expert system to predict acute toxicity from chemical structure based on mode of action considerations. […] A second valuable aspect of this database, from a QSAR modeling perspective, is the inclusion of general mode-of-action (MOA) classifications of acute toxicity response for individual chemicals derived from study results. MOA assignments are biologically based classifications, allowing definition of chemical similarity based upon biological activity instead of organic chemistry functional class as most commonly employed in QSAR study. MOA classifications should strengthen the scientific basis for construction of individual QSARs. However, it is cautioned that the broad MOA categorizations should not be construed to represent a single molecular mechanism; for example, CNS seizure agents and respiratory inhibitors are known to act through a variety of receptors. The EPA Fathead Minnow database and results have been used by EPA MED to build components of the ASTER prediction system, which incorporates MOA-based QSARs for the prediction of aquatic toxicity of environmental and industrial chemicals. Briefly, MOA classifications for individual chemicals, derived from experiments and provided in the EPA Fathead Minnow database, were used to derive substructural rules for assigning a new chemical to an MOA category based solely on chemical structure. Once a new chemical is assigned to an MOA category on this basis, the logP-based QSAR for that MOA category is applied.\nThe DSSTox EPAFHM database (available from the DSSTox Source URL) includes information pertaining to organic chemical class assignments (ChemClass_FHM), acute toxicity in fathead minnow (LC50_mg), dose-response assessments (LC50_Ratio, ExcessToxicityIndex), behavioral assessments (FishBehaviorTest), joint toxicity MOA evaluations of mixtures (MOA_MixtureTest), and additional MOA evaluation of fish acute toxicity syndrome (FishAcuteToxSyndrome) in rainbow trout. All of these indicators, to the extent available, were considered in the determination of MOA and, additionally, were used to determine a level of confidence in the MOA assignment for each chemical (MOA_Confidence). […] Activity Score is mapping of LOG10 (1/LC50_mmol) activity values spanning activity range [MIN, MAX] onto Integer 1-100 Activity range, where 100 is highest potency and 1 is lowest. If Activity Outcome is \"active\": Activity Score = 100 * INTEGER[(log10(1/ LC50_mmol) - MIN)/([…])].", "units": {"Potency": "µM"}, "values": [{"smiles": "CCCCCCCCCCCN", "Potency": 1.23}, {"smiles": "ClC(Cl)=C(Cl)C(Cl)=C(Cl)Cl", "Potency": 0.345}, {"smiles": "Cc1ccccc1F", "Potency": 176}, {"smiles": "COc1c(O)c(Br)cc(C=O)c1[N+](=O)[O-]", "Potency": 266}, {"smiles": "CC(=O)CC(C)=O", "Potency": 1350}, {"smiles": "CNc1ccccc1", "Potency": 933}, {"smiles": "CC(=O)c1cccc(N)c1", "Potency": 2830}, {"smiles": "CCCCCCCCc1ccc(N)cc1", "Potency": 0.584}, {"smiles": "OCCOCCO", "Potency": 709000}, {"smiles": "CC/C=C\\CCO", "Potency": 3800}, {"smiles": "CCN(CC)CCCC(C)=O", "Potency": 2140}, {"smiles": "CC(=O)c1cccn1C", "Potency": 1280}, {"smiles": "c1cc[c]([Sn]([c]2ccccc2)([c]2ccccc2)[c]2ccccc2)cc1", "outcome": "inactive; moa not determined either due to lack of toxicity at saturation or late test res"}, {"smiles": "COC(=O)c1ccc(Cl)cc1[N+](=O)[O-]", "Potency": 128}, {"smiles": "Cc1cc(C(C)(C)C)c(O)c(C(C)(C)C)c1", "Potency": 1.65}, {"smiles": "C/C=N/O", "Potency": 1290}, {"smiles": "CC[N+](CC)(CC)Cc1ccccc1", "Potency": 707}, {"smiles": "C[CH2][Sn]([CH2]C)([CH2]C)[CH2]C", "Potency": 0.0468}, {"smiles": "CCNCCO", "Potency": 16600}, {"smiles": "CNC(=O)Oc1cccc2ccccc12", "Potency": 43.5}, {"smiles": "O=C(/C=C/C=C/c1ccc2c(c1)OCO2)N1CCCCC1", "Potency": 27.5}, {"smiles": "CCC(C)C(C)C=O", "note": "(centres undefined)", "Potency": 140}, {"smiles": "O=Cc1ccc(Oc2ccccc2)cc1", "Potency": 23.2}, {"smiles": "CC(C)=CC=C(C)C", "Potency": 34.3}, {"smiles": "CC(=O)C(C)(C)C", "Potency": 869}, {"smiles": "Nc1ccccc1C(=O)c1ccc(Cl)cc1", "Potency": 9.15}, {"smiles": "O=[N+]([O-])c1ccc(O)cc1", "Potency": 322}, {"smiles": "CC(C)(C)c1cc(C(C)(C)C)c(O)c(C(C)(C)C)c1", "Potency": 0.232}, {"smiles": "C#CCCO", "Potency": 515}, {"smiles": "C1C2CC3CC1CC(C2)C3", "Potency": 2.06}, {"smiles": "O=[N+]([O-])c1ccc(Oc2ccccc2)cc1", "Potency": 12.3}, {"smiles": "CC1(C)C(C=C(Cl)Cl)C1C(=O)OCc1cccc(Oc2ccccc2)c1", "note": "(centres undefined)", "Potency": 0.0409}, {"smiles": "Cc1ccc(C)o1", "Potency": 740}, {"smiles": "COc1cc(Cl)c(Cl)cc1O", "Potency": 23.2}, {"smiles": "CNC(=O)Oc1ccc(N(C)C)c(C)c1", "Potency": 9.36}, {"smiles": "CCC(C)C=O", "note": "(centres undefined)", "Potency": 116}, {"smiles": "CCOC(=O)C(Cl)C(=O)OCC", "Potency": 4.88}, {"smiles": "COC(=O)c1ccc(C#N)cc1", "Potency": 290}, {"smiles": "C=C[C@@]1(C)CC[C@H]2C(=CC[C@@H]3[C@]2(C)CCC[C@@]3(C)C(=O)O)C1", "Potency": 2.88}, {"smiles": "C=C(CCl)CCl", "Potency": 1.52}, {"smiles": "Brc1ccccc1Br", "Potency": 17.2}, {"smiles": "CC(C)(O)C(Cl)(Cl)Cl", "Potency": 362}, {"smiles": "CCCCOC(=O)CCCCC(=O)OCCCC", "Potency": 14.1}, {"smiles": "O=C1CCCCC1", "Potency": 6330}, {"smiles": "CC(C)(C)c1ccc(Oc2cccc(C=O)c2)cc1", "Potency": 1.45}, {"smiles": "C=CCNc1ccccc1", "Potency": 270}, {"smiles": "CCN(CC)c1ccc(C=O)cc1", "Potency": 135}, {"smiles": "CCCCCCBr", "Potency": 20.9}, {"smiles": "CC(=O)/C=C/C1=C(C)CCCC1(C)C", "Potency": 26.5}, {"smiles": "N#CCC#N", "Potency": 8.48}, {"smiles": "CCOC(=O)c1ccccc1C(=O)OCC", "Potency": 143}, {"smiles": "Cc1ccccc1C=O", "Potency": 440}, {"smiles": "O=C(O)c1ccccc1O", "Potency": 12500}, {"smiles": "CC#CCO", "Potency": 144}, {"smiles": "CCCCCCN", "Potency": 559}, {"smiles": "O=[N+]([O-])c1cccc(Cl)c1", "Potency": 119}, {"smiles": "CC(=O)c1ccc(Cl)c(Cl)c1Cl", "Potency": 8.95}, {"smiles": "CC1(C)NC(=O)NC1=O", "Potency": 129000}, {"smiles": "Oc1cccnc1Br", "Potency": 2700}, {"smiles": "Cc1ccc(N(C)C)cc1", "Potency": 362}, {"smiles": "ClC(Cl)Cl", "Potency": 592}, {"smiles": "CCOc1cc(C=O)ccc1O", "Potency": 527}, {"smiles": "OCCCc1cccnc1", "Potency": 1090}, {"smiles": "CCCCCCCCCCCCc1ccc(N)cc1", "outcome": "inactive; moa not determined either due to lack of toxicity at saturation or late test res"}]}]}
